The source of these data is patent US20250171438A1 (Agios Pharmaceuticals, Inc., priority 2022, published 2025).

The structures appear in SMILES notation.

One assay has as its target T1, human PAH with the R408W mutation (Homo sapiens, UniProt P00439, R408W).
T1 construct: expressed in transfected cells
T1 sequence (P00439 1-452 R408W): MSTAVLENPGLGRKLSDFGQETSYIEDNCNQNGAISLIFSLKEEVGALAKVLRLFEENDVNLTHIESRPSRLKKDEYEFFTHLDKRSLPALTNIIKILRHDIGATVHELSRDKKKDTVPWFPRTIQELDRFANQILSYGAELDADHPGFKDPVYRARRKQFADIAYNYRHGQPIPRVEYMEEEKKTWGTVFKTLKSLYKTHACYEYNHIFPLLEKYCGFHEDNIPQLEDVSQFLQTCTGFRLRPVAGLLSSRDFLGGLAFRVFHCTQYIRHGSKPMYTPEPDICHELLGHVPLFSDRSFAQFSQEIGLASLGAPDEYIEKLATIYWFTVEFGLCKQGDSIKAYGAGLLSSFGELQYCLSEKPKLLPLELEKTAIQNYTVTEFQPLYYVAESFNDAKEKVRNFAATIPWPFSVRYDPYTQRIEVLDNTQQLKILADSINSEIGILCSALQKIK
In words: Cell Based Phenylalanine Flux Assay. The following applies: A375 cells expressing human R408W PAH; 24 hrs compound incubation; 13C-Tyrosine by LC-MS; average where tested multiple times; read-out: AC50. Further details: scale not given here.
As usually defined, the AC50 is the concentration at which the activity in the assay is half-maximal. In the case of `CC(C)(O)c1nc(Br)c(C(=O)N2CCc3[nH]cnc3[C@H]2c2nc3c(F)cccc3s2)s1` [Example 2093, (S)-(4-bromo-2-(2-hydroxypropan-2-yl)thiazol-5-yl)(4-(4-fluorobenzo[d]thiazol-2-yl)-6,7-dihydro-1H-imidazo[4,5-c]pyridin-5(4H)-yl)methanone], the AC50 is under 0.5 µM.
Regarding `O=C(c1nc2ccccc2[nH]1)N1CCc2[nH]cnc2[C@H]1c1nc2ccccc2s1` [Example 1131], the AC50 is 0.5 to 1 µM.
Regarding `CN(C)c1nnc(C(=O)N2CCc3[nH]cnc3[C@H]2c2nc3ccccc3s2)o1` [Example 1609], the AC50 was under 0.5 µM.
Consider `CC(C)n1ncc(C(=O)N2CCc3[nH]cnc3[C@H]2c2nc3c(F)cccc3s2)c1Cl` [Example 1951], for which the half-maximal activity concentration (AC50) was 0.5 to 1 µM.
As for `CC(C)(F)c1nnc(C(=O)N2CCc3[nH]cnc3[C@H]2c2nc3c(F)cccc3s2)o1` [Example 1836, (S)-(4-(4-fluorobenzo[d]thiazol-2-yl)-6,7-dihydro-1H-imidazo[4,5-c]pyridin-5(4H)-yl)(5-(2-fluoropropan-2-yl)-1,3,4-oxadiazol-2-yl)methanone], the AC50 is under 0.5 µM.
With `O=C(CC1(O)CCC1)N1CCc2[nH]cnc2[C@H]1c1nc2ccccc2s1` [Example 1657], the AC50 is under 0.5 µM.
As for `Cn1cc(C(=O)N2CCc3[nH]cnc3[C@@H]2c2nc3ccccc3s2)c(Cl)n1` [Example 1869, (R)-(4-(benzo[d]thiazol-2-yl)-6,7-dihydro-1H-imidazo[4,5-c]pyridin-5(4H)-yl)(3-chloro-1-methyl-1H-pyrazol-4-yl)methanone], the AC50 is over 5 µM.
Same read-out and setting: the same measure for `O=C(c1oc(C2(O)CC2)nc1C(F)F)N1CCc2[nH]cnc2[C@@H]1c1nc2ccccc2s1` [Example 2056, (R)-(4-(benzo[d]thiazol-2-yl)-6,7-dihydro-1H-imidazo[4,5-c]pyridin-5(4H)-yl)(4-(difluoromethyl)-2-(1-hydroxycyclopropyl)oxazol-5-yl)methanone]: 1 to 5 µM.
As to `Cn1nc(Cl)nc1C(=O)N1CCc2[nH]cnc2[C@@H]1c1nc2ccccc2s1` [Example 1938, (R)-(4-(benzo[d]thiazol-2-yl)-6,7-dihydro-1H-imidazo[4,5-c]pyridin-5(4H)-yl)(3-chloro-1-methyl-1H-1,2,4-triazol-5-yl)methanone], the AC50 was in the range of 1 to 5 µM.
For the compound `O=C(c1oc(N2CCOCC2)nc1Br)N1CCc2[nH]cnc2[C@@H]1c1nc2c(F)cccc2s1` [Example 2034, (R)-(4-bromo-2-morpholinooxazol-5-yl)(4-(4-fluorobenzo[d]thiazol-2-yl)-6,7-dihydro-1H-imidazo[4,5-c]pyridin-5(4H)-yl)methanone], the AC50 lay within 1 to 5 µM.
Regarding `CCc1nnc(CCC(=O)N2CCc3[nH]cnc3[C@@H]2c2nc3ccccc3s2)s1` [Example 1116, (R)-1-(4-(benzo[d]thiazol-2-yl)-6,7-dihydro-1H-imidazo[4,5-c]pyridin-5(4H)-yl)-3-(5-ethyl-1,3,4-thiadiazol-2-yl)propan-1-one], the AC50 was over 5 µM.
Regarding `O=C(CCc1nccs1)N1CCc2[nH]cnc2[C@H]1c1nc2c(F)cccc2s1` [Example 1077, (S)-1-(4-(4-fluorobenzo[d]thiazol-2-yl)-6,7-dihydro-1H-imidazo[4,5-c]pyridin-5(4H)-yl)-3-(thiazol-2-yl)propan-1-one], the AC50 was 1 to 5 µM.
For `O=C(c1nnc(N2CCOCC2)o1)N1CCc2[nH]cnc2[C@@H]1c1nc2ccccc2s1` [Example 1586, (R)-(4-(benzo[d]thiazol-2-yl)-6,7-dihydro-1H-imidazo[4,5-c]pyridin-5(4H)-yl)(5-morpholino-1,3,4-oxadiazol-2-yl)methanone], the AC50 is 1 to 5 µM.
Take `Cn1cc(C(=O)N2CCc3[nH]cnc3[C@H]2c2nc3c(F)cccc3s2)c(C(F)(F)F)n1` [Example 1613, (S)-(4-(4-fluorobenzo[d]thiazol-2-yl)-6,7-dihydro-1H-imidazo[4,5-c]pyridin-5(4H)-yl)(1-methyl-3-(trifluoromethyl)-1H-pyrazol-4-yl)methanone]: the AC50 was under 0.5 µM.
On the same count and under the same terms, the same measure for `O=C(c1nnc(C2CC2)o1)N1CCc2[nH]cnc2[C@H]1c1nc2c(F)cccc2s1` [Example 1443]: under 0.5 µM; for `[2H][C@@]1(c2nc3ccccc3s2)c2nc[nH]c2CCN1C(=O)c1cnc(-c2cnn(C)c2)s1` [Example 2157, [(4S)-4-(1,3-benzothiazol-2-yl)-4-deuterio-6,7-dihydro-1H-imidazo[4,5-c]pyridin-5-yl]-[2-(1-methylpyrazol-4-yl)thiazol-5-yl]methanone]: under 0.5 µM.
Still for that read-out and setting: the same measure for `O=C(c1cnn2ccc(Br)cc12)N1CCc2[nH]cnc2[C@@H]1c1nc2ccc(Br)cc2[nH]1` [Example 998, (R)-(4-(6-bromo-1H-benzo[d]imidazol-2-yl)-6,7-dihydro-1H-imidazo[4,5-c]pyridin-5(4H)-yl)(5-bromopyrazolo[1,5-a]pyridin-3-yl)methanone]: over 5 µM.
In the case of `O=C(c1nnc(-c2ccccc2)o1)N1CCc2[nH]cnc2[C@@H]1c1nc2ccccc2s1` [Example 1418, (R)-(4-(benzo[d]thiazol-2-yl)-6,7-dihydro-1H-imidazo[4,5-c]pyridin-5(4H)-yl)(5-phenyl-1,3,4-oxadiazol-2-yl)methanone], the AC50 lay in the range of 1 to 5 µM.
On the same count and under the same terms, as for `O=C(C1CC1(F)F)N1CCc2[nH]cnc2[C@@H]1c1nc2ccccc2s1` (single isomer, unassigned) [Example 1285], the figure is over 5 µM.
On the same count and under the same terms, the same measure for `Cc1cnn(C)c1-c1nnc(C(=O)N2CCc3[nH]cnc3[C@H]2c2nc3ccccc3s2)o1` [Example 1947]: under 0.5 µM; for `COc1ccn2ncc(C(=O)N3CCc4[nH]cnc4[C@H]3c3nc4c(F)cccc4s3)c2c1` [Example 1197, (S)-(4-(4-fluorobenzo[d]thiazol-2-yl)-6,7-dihydro-1H-imidazo[4,5-c]pyridin-5(4H)-yl)(5-methoxypyrazolo[1,5-a]pyridin-3-yl)methanone]: 0.5 to 1 µM.
As to `CC(C)(F)c1ccc2c(C(=O)N3CCc4[nH]cnc4[C@@H]3c3nc4c(F)cccc4s3)cnn2c1` [Example 1490, (R)-(4-(4-fluorobenzo[d]thiazol-2-yl)-6,7-dihydro-1H-imidazo[4,5-c]pyridin-5(4H)-yl)(6-(2-fluoropropan-2-yl)pyrazolo[1,5-a]pyridin-3-yl)methanone], the AC50 lay in the range of 1 to 5 µM.
As for `O=C(c1scnc1Cl)N1CCc2[nH]cnc2[C@@H]1c1nc2ccc(F)cc2s1` [Example 1141], the AC50 was over 5 µM.
Take `CC(F)(F)c1ncoc1C(=O)N1CCc2[nH]cnc2[C@H]1c1nc2c(F)cccc2s1` [Example 2007]: the AC50 is under 0.5 µM.

The assay is the same for the next values; noted with them: A375 cells expressing human R408W PAH; 24 hrs with compound; 13C-Tyrosine by LC-MS; average where tested multiple times.
Consider `CN(C)Cc1nc(C(F)(F)F)c(C(=O)N2CCc3[nH]cnc3C2c2nc3ccccc3s2)o1` (centres unmarked), for which the AC50 result is “E, E”.
Turning to `CN1CCN(c2nc(C#N)c(C(=O)N3CCc4[nH]cnc4C3c3nc4ccccc4s3)o2)CC1` (centres unmarked), the AC50 result is “E, E”.

Still in this assay, the particulars now being: A375 cells expressing human R408W PAH; 24 hrs with compound; 13C-Tyrosine by LC-MS; average where tested multiple times; read-out: AC50.
As to `O=C(C1CCCCC1)N1CCc2[nH]cnc2[C@H]1c1nc2ccccc2[nH]1` [(S)-(4-(1H-benzo[d]imidazol-2-yl)-1,4,6,7-tetrahydro-5H-imidazo[4,5-c]pyridin-5-yl)(cyclohexyl)methanone], the AC50 lay within 1 to 5 µM.
Still for that read-out and setting: as for `O=C(Cc1nc(C(F)(F)F)cs1)N1CCc2[nH]cnc2C1c1nc2ccc(Cl)cc2[nH]1` (centres unmarked), the figure is over 5 µM.
The same measure, in the same setting: as for `O=C(C1CN(c2ccccn2)C1)N1CCc2[nH]cnc2C1c1nc2ccccc2s1` (centres unmarked), the figure is over 5 µM; as for `Cc1nnc(CCC(=O)N2CCc3[nH]cnc3C2c2nc3cc(F)ccc3s2)s1` (centres unmarked), 1 to 5 µM; as for `O=C(C1CC1F)N1CCc2[nH]cnc2C1c1nc2ccccc2s1` (centres unmarked), over 5 µM.
As to `O=C(c1cncs1)N1CCc2[nH]cnc2C1c1nc2ccc(Cl)cc2[nH]1` (centres unmarked), the AC50 was over 5 µM.
`Cc1nc(C(C)(C)O)oc1C(=O)N1CCCc2[nH]cnc2C1c1nc2ccccc2s1` (centres unmarked): the AC50 is over 5 µM.
Turning to `Cn1nc(C(C)(C)O)nc1C(=O)N1CCc2[nH]cnc2C1c1nc2c(F)cccc2s1` (centres unmarked), the AC50 was over 5 µM.
Consider `O=C(C1CC1)N1CCc2[nH]cnc2C1c1nc2c(F)cccc2s1` (centres unmarked), for which the AC50 was 1 to 5 µM.
For `O=C(c1ncc(Cl)s1)N1CCc2[nH]cnc2C1c1nc2cccc(F)c2s1` (centres unmarked), the AC50 lay within 1 to 5 µM.
`CC(C)(O)Cn1ncc(C(=O)N2CCc3[nH]cnc3C2c2nc3c(F)cccc3s2)c1Cl` (centres unmarked): the AC50 lay within 1 to 5 µM.
Still for that read-out and setting: as for `O=C(c1ncco1)N1CCc2[nH]cnc2C1c1nc2ccccc2s1` (centres unmarked), the figure is 1 to 5 µM; as for `CC(C)(O)c1noc(C(=O)N2CCc3[nH]cnc3C2c2nc3ccccc3s2)n1` (centres unmarked), 1 to 5 µM; as for `Cc1nnc(C(=O)N2CCc3[nH]cnc3C2c2nc3ccccc3[nH]2)s1` (centres unmarked), 1 to 5 µM.
Turning to `CC(C)(C)CCC(=O)N1CCc2[nH]cnc2C1c1nc2cc(F)ccc2s1` (centres unmarked), the AC50 is 1 to 5 µM.
For the compound `O=C(Cc1nncs1)N1CCc2[nH]cnc2C1c1nc2c(F)cccc2s1` (centres unmarked), the concentration at half-maximal activity (AC50) was over 5 µM.
Same read-out and setting: the same measure for `COC(=O)N1CC(C(=O)N2CCc3[nH]cnc3C2c2nc3c(F)cccc3s2)C1` (centres unmarked): 1 to 5 µM.
`O=C(C=Cc1ccccc1)N1CCc2[nH]cnc2C1c1nc2ccccc2[nH]1` (centres unmarked): the AC50 fell in the range of 1 to 5 µM.
In the case of `COCc1ncc(C(=O)N2CCc3[nH]cnc3C2c2nc3ccccc3s2)o1` (centres unmarked), the AC50 lay in the range of 1 to 5 µM.
For `O=C(c1ncc[nH]1)N1CCc2[nH]cnc2C1c1nc2ccccc2[nH]1` (centres unmarked), the AC50 is 1 to 5 µM.
`O=C(c1nnc(CCCN2CC(F)C2)o1)N1CCc2[nH]cnc2C1c1nc2ccccc2s1` (centres unmarked): the AC50 was over 5 µM.
